The values below are quoted from earlier work in patent US7947297B2, “Mixtures of phenolic and inorganic materials with antimicrobial activity” (BASF SE, priority 2000, dated 2011).

The conditions of the data set: polypropylene samples, Xenon Arc Weather-Ometer at 035 W/m^2, 63° C.

Turning to `Oc1cc(Cl)ccc1Oc1ccc(Cl)cc1Cl` [Irgaguard ® B1000, 2,4,4′-trichloro-2′-hydroxydiphenyl ether], the discoloration upon weathering result is “discolor within hours”.
